# Data taken from US8044035B2, “Pharmaceutical compositions of pyrimidine-2,4,6-triones” (priority 2004, dated 2011).
# Legend:
# [1] = Phase solubility studies with L-lysine solution as adjuvant (25° C., 7 days, LC); assay type: physicochemical
# Description: Solubility studies were performed as described by Higuchi, T., and Connors, K. A., Advances in Analytical Chemistry and Instrumentation 4 (1965) 117-212. Excess amounts of Compound I were added to increasing concentrations of HP-β-CD (0-200 mM) in 5 ml dissolution media, either purified water or L-lysine solutions (50 mM or 500 mM). The glass containers were sealed and the suspensions were shaken in a water-bath at 25° C. until complexation equilibrium was reached (7 days). An aliquot was filtered through a 0.45 μm PVDF membrane filter and assayed for Compound I content by a validated liquid chromatography (LC) method.
# [2] = Differential solubility in acetonitrile of free and complexed compound I; assay type: physicochemical; details: organic solvent or mixture; free compound
# From the text: Compound I has different solubility when it is in the complex form or not. […] In these conditions the included drug remains trapped and becomes insoluble in the solvent. This technique of differential solubility between compound I in the free or in the complexed form can be applied to evaluate the percentage of complexation.
# [3] = Pharmacokinetics after intravenous administration to sheep; assay type: in vivo; details: intravenous 5 mg/kg
# Description: The Compound I/HP-β-CD intravenous solution was obtained by dissolving Compound I (10 mg/ml) in a solution containing HP-β-CD (200 mM), L-lysine (20 mM) and water for injection. The osmolality (about 325 mOsmol/kg) and the pH (about 8.2) values of this solution are compatible with an intravenous injection. The solution was sterilized by passing through a sterile 0.20 μm cellulose acetate filter under aseptic conditions.
# Six healthy sheep (2 males and 4 females) ranging from 45 to 82 kg of body weight were used as experimental animals. During the test, the animals were fed and watered ad libitum. […]
# For the intravenous administration study, the pharmacokinetic parameters were determined for each animal using a linear two-compartment model with first-order distribution and elimination (Boroujerdi, M., Pharmacokinetics, Principles and Applications. McGrow-Hill Companies, USA, 2002). The areas under the curve values (AUCs0-168) were calculated by linear trapezoidal rule during the sampling period. The AUC extrapolated until infinite values (AUCs0-∞) the total body clearance values (Clt), the biologic half-life (T1/2β) and the overall volume of distribution (Vdt) were calculated using conventional equations associated with compartmental analysis (Boroujerdi, M., Pharmacokinetics, Principles and Applications. McGrow-Hill Companies, USA, 2002).
# [4] = test system: aorta ring, formation of new vessels (angiogenesis); assay: Aorta ring model of neovascularisation (inhibition of angiogenesis); assay type: cell-based; details: aorta ring in culture medium, final concentration 10^−6 M, 10^−7 M
# From the text: In order to study the potential effects of the complex Compound I-cyclodextrine, a model of neovascularisation has been used. An aorta ring is cut and placed in a culture medium. This culture medium containing either: • no active principle • the complex compound I-cyclodextrins (final concentration 10-^6M, 10^−7M) • compound I dissolved in DMSO with the help of […] (final concentration 10-^6, 10-^7M).
# [5] = test system: allergen-induced airway inflammation in a mouse model of asthma; assay: Mouse model of asthma, intraperitoneal injection of Compound I; assay type: in vivo, mice
# Description: No inhalations were performed during even weeks.
# [6] = test system: allergen-induced airway inflammation and bronchial hyperresponsiveness in a mouse model of asthma; assay: Mouse model of asthma, inhalation, short exposure challenge; details: inhalation of Compound I 40 mg/ml in pure DMSO, short-term exposure, vs DMSO alone
# Description: Two protocols referred to as short exposure challenge and long-term exposure challenge were used. […] No inhalations were performed during even weeks.
# (§1) The aerosol were produced by using an ultrasonic nebuliser SYSTAM (Système Assistance Medical, Le Ledat, France), the vibration frequency of which is 2.4 MHz with variable vibration intensity and ventilation levels. Vibration intensity was fixed in position 6 and the ventilation level was 25(v1/2) l/min.
# Twenty-four hours after the last allergen exposure, the bronchial hyper responsiveness was determined by measuring the Penh using a barometric plethysmograph as proposed by Hamelmann, E., et al., Am. […] The Penh was measured at baseline and 5 min after the inhalation of increasing doses (25, 50, 75 and 100 mM) of methacholine (Mch).
# Immediately after the assessment of airway responsiveness, mice were sacrificed and 1 ml of PBS free of ionised calcium and magnesium but supplemented with 0.05 mM sodium EDTA was instilled 4 times via a tracheal cannula and recovered by gentle manual aspiration. The recovered bronchoalveolar lavage fluid (BAL) was centrifuged (1800 rpm for 10 min at 4° C.). The cell pellet was washed twice and finally resuspended in 1 ml of PBS. A total cell count was performed in a Thoma chamber and the differential cell counts on at least 400 cells were performed on cytocentrifuged preparations (Cytospin 2; Cytospin, Shandon td., Runcorn, Cheshire, U.K.) using standard morphologic criteria after staining with Diff-Quick (Dade, Germany). After BAL, the thorax was opened and the left main bronchus was clamped. […] Sections of 5 μm thickness from all lobes were stained with haematoxylin and eosin. The extent of peribronchial infiltrates was estimated by an inflammation score. […] A value from 0 to 3 per criteria was adjudged to each tissue section scored. […] As 5-7 randomly selected tissue sections per mouse were scored, inflammation scores could be expressed as a mean value per animal and could be compared between groups.
# [7] = test system: allergen-induced airway inflammation in a mouse model of asthma; assay: Mouse model of asthma, inhalation, long-term exposure challenge (11 weeks); details: aerosol, long term (11 weeks) allergen exposure, p<0.01
# Description: Intraperitoneal injections were performed 30 min before OVA inhalations. […] Two protocols referred to as short exposure challenge and long-term exposure challenge were used. […] No inhalations were performed during even weeks.
# as §1
# Immediately after the assessment of airway responsiveness, mice were sacrificed and 1 ml of PBS free of ionised calcium and magnesium but supplemented with 0.05 mM sodium EDTA was instilled 4 times via a tracheal cannula and recovered by gentle manual aspiration. […] After BAL, the thorax was opened and the left main bronchus was clamped. […] Another score referred to as tissue eosinophil infiltration score, specifically reflecting the amounts of eosinophils infiltrating the bronchial walls, was measured as follows: after a congo red staining, seven bronchi were studied per mouse. The eosinophils were counted around the bronchi within the limits of the airway wall, the perimeter of the epithelial basement membrane was measured and the results were expressed as number of eosinophils/mm of basement membrane.
compound,measurement,setting,value
"O=C1NC(=O)C(c2ccc(-c3ccccc3)cc2)(N2CCN(c3ccc([N+](=O)[O-])cc3)CC2)C(=O)N1 [Compound I, 5-Biphenyl-4-yl-5-[4-(4-nitro-phenyl)-piperazin-1-yl]pyrimidine-2,4,6-trione]",Increase of aqueous solubility,"[1]; 200 mM HP-β-CD, absence of L-lysine","approximately 10,000 fold"
same,Increase of aqueous solubility,[1]; 500 mM of L-lysine and 200 mM of HP-β-CD,"70,000 fold"
same,Solubility with HP-β-CD (200 mM),"[1]; Purified Water, 25° C.",5530 µg/mL
same,solubility,[2],~700 µg/mL
same,Distribution phase,[3],about 30 minutes
same,Angiogenesis (formation of new vessels),[4],inhibited significantly
same,Peribronchial inflammation scores,"[5]; 3.75 to 30 mg/kg, equal efficacy of all tested formulations",significantly lowered
same,Tissue eosinophil infiltration score,[5]; doses of 7.5 and 25 mg/kg,significantly lowered
same,Allergen-induced airway eosinophilic inflammation in BAL,"[5]; solution or precipitate, 3.75 to 30 mg/kg, compared to placebo, OVA-sensitized mice",lowered
same,BAL eosinophils,[6]; p<0.005,significant decrease
same,Peribronchial inflammation scores,[6]; p<0.01,significant decrease
same,Bronchial hyperresponsiveness,[6]; p<0.05,significant decrease
same,Tissue eosinophil infiltration score,[7],decreased
